Publication PMC6437697 (Journal of Medicinal Chemistry, 2019)

Columns and labels:
Experiment in all cases: KINOMEscan
[1] = target: T1, TRKC (Homo sapiens, UniProt Q16288); type: binding; conditions: read-out: % control activity remaining
T1 construct: purchased Eurofins DiscoverX KINOMEscan

[2] = target: T2, JNK1 (Homo sapiens, UniProt P45983); type: binding; conditions: read-out: % control activity remaining
T2 construct: purchased Eurofins DiscoverX KINOMEscan

[3] = target: T3, BRAF (Homo sapiens, UniProt P15056); type: binding; conditions: read-out: % control activity remaining
T3 construct: purchased Eurofins DiscoverX KINOMEscan
T3 sequence (P15056 whole entry): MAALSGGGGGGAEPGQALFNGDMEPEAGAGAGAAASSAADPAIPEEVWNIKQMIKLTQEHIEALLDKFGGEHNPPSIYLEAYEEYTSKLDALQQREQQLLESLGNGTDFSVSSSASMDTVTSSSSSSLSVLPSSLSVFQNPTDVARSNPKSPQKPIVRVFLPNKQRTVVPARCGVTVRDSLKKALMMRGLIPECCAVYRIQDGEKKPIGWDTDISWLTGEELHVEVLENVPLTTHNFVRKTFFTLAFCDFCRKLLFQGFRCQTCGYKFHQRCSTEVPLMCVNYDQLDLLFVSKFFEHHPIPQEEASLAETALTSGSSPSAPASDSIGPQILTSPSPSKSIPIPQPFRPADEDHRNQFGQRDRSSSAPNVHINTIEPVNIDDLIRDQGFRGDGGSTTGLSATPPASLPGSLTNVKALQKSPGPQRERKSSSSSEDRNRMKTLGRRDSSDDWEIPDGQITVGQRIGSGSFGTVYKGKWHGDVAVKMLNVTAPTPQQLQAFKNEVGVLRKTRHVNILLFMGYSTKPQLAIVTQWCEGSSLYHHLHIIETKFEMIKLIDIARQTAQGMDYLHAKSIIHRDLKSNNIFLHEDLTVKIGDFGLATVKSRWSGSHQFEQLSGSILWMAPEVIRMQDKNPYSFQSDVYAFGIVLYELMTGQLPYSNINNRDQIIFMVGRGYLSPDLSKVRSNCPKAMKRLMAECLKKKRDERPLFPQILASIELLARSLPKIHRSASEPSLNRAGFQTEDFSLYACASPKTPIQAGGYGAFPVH

[4] = target: T4, MERTK (Homo sapiens, UniProt Q12866); type: binding; conditions: read-out: % control activity remaining
T4 construct: purchased Eurofins DiscoverX KINOMEscan
T4 sequence (Q12866 21-999): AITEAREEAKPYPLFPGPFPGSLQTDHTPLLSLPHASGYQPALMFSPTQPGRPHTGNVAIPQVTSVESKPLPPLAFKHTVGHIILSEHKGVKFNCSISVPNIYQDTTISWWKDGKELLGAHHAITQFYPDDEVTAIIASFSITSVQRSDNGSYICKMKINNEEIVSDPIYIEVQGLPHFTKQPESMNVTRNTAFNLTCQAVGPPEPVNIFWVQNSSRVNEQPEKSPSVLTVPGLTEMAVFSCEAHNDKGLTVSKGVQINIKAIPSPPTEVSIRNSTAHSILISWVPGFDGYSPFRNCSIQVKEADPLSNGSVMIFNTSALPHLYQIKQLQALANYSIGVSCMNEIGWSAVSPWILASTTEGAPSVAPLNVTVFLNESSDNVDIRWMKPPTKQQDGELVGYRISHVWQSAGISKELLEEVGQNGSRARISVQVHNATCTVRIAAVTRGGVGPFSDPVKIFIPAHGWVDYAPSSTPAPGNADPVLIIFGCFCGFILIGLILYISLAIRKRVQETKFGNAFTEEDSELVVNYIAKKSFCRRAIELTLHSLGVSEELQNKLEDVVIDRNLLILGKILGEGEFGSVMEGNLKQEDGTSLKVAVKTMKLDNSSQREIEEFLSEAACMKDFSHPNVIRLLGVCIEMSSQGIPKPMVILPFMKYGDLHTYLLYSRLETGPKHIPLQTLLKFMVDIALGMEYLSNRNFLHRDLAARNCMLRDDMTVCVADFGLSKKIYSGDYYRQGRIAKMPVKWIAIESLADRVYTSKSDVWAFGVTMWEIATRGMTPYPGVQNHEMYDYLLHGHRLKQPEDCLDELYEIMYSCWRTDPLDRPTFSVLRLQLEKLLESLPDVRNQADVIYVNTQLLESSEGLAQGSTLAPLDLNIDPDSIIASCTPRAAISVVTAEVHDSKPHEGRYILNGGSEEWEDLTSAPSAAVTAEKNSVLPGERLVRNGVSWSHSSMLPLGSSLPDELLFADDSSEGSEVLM

[5] = tested on: FLT3(ITD); type: binding, human; conditions: 1000 nM
[6] = target: T5, RPS6KA5(Kin.Dom.1-N-terminal) (Homo sapiens, UniProt O75582); type: binding; conditions: read-out: % control activity remaining
T5 construct: RPS6KA5(Kin.Dom.1-N-terminal); purchased Eurofins DiscoverX KINOMEscan
T5 sequence (O75582 49-318 limits assumed): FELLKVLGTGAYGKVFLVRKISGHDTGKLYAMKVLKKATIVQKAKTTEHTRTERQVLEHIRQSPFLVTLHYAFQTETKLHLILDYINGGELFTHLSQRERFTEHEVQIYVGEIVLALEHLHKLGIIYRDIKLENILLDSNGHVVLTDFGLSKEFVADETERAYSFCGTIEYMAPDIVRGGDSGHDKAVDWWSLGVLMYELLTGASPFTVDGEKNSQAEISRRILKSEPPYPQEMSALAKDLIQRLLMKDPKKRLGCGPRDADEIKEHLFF

[7] = target: T6, ABL1(Q252H)-phosphorylated (Homo sapiens, UniProt P00519, Q252H); type: binding; conditions: read-out: % control activity remaining
T6 construct: purchased Eurofins DiscoverX KINOMEscan

[8] = target: T7, TBK1 (Homo sapiens, UniProt Q9UHD2); type: binding; conditions: read-out: % control activity remaining
T7 construct: purchased Eurofins DiscoverX KINOMEscan
T7 sequence (Q9UHD2 1-729): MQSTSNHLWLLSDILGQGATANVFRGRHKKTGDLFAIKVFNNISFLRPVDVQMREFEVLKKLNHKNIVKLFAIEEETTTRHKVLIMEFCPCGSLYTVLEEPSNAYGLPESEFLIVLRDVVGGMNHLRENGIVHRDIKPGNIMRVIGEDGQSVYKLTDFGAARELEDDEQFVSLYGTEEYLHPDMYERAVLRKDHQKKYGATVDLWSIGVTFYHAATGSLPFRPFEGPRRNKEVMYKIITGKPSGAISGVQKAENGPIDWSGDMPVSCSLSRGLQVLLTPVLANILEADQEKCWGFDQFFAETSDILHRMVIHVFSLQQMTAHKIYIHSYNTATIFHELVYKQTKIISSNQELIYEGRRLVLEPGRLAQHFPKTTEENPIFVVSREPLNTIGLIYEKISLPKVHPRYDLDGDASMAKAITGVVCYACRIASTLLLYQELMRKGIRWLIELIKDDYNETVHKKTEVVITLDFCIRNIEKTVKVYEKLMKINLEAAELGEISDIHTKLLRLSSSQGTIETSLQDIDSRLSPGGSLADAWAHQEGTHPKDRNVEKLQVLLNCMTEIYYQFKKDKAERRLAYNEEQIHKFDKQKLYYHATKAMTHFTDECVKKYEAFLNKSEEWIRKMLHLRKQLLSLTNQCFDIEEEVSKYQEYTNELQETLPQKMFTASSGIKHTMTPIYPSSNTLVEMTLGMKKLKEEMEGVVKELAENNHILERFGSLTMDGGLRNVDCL

[9] = target: T8, BRAF(V600E) (Homo sapiens, UniProt P15056, V600E); type: binding; conditions: read-out: % control activity remaining
T8 construct: purchased Eurofins DiscoverX KINOMEscan
T8 sequence (P15056 whole entry V600E): as the sequence (P15056 whole entry) above, with V600E counted along it

[10] = target: T9, ADCK4 (Homo sapiens, UniProt Q96D53); type: binding; conditions: read-out: % control activity remaining
T9 construct: purchased Eurofins DiscoverX KINOMEscan
T9 sequence (Q96D53 1-544): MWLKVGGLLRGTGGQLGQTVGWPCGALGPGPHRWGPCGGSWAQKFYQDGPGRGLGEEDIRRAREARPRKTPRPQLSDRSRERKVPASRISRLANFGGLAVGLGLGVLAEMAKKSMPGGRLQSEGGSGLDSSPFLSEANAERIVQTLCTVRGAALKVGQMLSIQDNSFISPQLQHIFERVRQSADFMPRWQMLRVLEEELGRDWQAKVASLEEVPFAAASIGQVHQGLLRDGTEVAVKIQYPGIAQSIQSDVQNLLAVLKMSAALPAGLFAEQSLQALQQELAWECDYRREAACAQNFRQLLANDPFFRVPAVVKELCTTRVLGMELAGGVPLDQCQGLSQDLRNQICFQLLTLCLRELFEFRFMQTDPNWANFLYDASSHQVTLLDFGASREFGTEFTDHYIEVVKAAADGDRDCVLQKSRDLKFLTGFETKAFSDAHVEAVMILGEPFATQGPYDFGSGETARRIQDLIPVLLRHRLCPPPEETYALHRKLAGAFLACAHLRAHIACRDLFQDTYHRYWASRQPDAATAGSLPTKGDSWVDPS

[11] = target: T10, CDK8 (Homo sapiens, UniProt P49336); type: binding; conditions: read-out: % control activity remaining
T10 construct: purchased Eurofins DiscoverX KINOMEscan
T10 sequence (P49336 whole entry): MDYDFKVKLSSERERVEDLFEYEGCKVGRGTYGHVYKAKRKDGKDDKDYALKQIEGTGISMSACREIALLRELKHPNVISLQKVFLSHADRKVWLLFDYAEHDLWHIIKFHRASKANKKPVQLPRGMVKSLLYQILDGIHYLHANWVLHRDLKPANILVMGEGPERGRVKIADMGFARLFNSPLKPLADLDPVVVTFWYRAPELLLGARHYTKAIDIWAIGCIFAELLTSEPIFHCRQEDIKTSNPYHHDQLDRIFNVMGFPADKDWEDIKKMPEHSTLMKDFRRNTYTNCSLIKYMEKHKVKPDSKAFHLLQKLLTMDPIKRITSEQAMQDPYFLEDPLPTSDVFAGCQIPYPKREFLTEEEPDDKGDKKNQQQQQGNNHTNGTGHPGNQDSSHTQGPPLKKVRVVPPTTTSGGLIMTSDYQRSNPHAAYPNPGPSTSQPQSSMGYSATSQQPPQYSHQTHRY

[12] = target: T11, FYN (Homo sapiens, UniProt P06241); type: binding; conditions: read-out: % control activity remaining
T11 construct: purchased Eurofins DiscoverX KINOMEscan
T11 sequence (P06241 whole entry): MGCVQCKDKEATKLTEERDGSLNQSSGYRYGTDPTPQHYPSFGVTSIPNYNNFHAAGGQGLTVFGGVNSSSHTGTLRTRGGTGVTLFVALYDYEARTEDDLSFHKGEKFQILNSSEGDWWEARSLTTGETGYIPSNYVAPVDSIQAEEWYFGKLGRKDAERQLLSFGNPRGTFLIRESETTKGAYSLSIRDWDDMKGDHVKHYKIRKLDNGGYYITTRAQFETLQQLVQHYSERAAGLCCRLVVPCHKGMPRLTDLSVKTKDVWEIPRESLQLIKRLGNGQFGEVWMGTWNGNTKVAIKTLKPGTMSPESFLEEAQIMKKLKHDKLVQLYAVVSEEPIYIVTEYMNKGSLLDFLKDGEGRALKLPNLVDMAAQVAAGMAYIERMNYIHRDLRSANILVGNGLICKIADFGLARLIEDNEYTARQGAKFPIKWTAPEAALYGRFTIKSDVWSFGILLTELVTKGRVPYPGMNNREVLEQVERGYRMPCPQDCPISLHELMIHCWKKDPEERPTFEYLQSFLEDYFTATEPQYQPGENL

[13] = target: T12, MARK2 (Homo sapiens, UniProt Q7KZI7); type: binding; conditions: read-out: % control activity remaining
T12 construct: purchased Eurofins DiscoverX KINOMEscan
T12 sequence (Q7KZI7 whole entry): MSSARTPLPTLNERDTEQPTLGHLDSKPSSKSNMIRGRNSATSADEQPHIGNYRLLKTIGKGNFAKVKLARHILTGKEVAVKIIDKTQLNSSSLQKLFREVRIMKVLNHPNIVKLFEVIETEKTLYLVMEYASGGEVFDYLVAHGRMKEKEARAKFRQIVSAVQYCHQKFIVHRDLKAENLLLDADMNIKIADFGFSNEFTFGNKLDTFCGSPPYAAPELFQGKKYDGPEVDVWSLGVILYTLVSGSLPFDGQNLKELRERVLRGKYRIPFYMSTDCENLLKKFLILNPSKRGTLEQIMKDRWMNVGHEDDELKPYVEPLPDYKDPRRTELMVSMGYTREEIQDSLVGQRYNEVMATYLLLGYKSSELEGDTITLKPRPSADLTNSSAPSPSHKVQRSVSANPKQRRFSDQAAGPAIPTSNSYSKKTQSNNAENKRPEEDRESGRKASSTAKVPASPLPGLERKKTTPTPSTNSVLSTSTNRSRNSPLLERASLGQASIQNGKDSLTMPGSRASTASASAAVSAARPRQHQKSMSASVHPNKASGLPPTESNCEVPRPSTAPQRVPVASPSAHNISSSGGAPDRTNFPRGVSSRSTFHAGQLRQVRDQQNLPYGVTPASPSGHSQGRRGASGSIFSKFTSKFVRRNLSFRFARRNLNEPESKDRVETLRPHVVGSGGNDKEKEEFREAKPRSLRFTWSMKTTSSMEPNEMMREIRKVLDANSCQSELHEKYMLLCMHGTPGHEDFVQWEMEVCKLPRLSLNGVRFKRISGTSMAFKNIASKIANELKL

T1 sequence (Q16288 32-839): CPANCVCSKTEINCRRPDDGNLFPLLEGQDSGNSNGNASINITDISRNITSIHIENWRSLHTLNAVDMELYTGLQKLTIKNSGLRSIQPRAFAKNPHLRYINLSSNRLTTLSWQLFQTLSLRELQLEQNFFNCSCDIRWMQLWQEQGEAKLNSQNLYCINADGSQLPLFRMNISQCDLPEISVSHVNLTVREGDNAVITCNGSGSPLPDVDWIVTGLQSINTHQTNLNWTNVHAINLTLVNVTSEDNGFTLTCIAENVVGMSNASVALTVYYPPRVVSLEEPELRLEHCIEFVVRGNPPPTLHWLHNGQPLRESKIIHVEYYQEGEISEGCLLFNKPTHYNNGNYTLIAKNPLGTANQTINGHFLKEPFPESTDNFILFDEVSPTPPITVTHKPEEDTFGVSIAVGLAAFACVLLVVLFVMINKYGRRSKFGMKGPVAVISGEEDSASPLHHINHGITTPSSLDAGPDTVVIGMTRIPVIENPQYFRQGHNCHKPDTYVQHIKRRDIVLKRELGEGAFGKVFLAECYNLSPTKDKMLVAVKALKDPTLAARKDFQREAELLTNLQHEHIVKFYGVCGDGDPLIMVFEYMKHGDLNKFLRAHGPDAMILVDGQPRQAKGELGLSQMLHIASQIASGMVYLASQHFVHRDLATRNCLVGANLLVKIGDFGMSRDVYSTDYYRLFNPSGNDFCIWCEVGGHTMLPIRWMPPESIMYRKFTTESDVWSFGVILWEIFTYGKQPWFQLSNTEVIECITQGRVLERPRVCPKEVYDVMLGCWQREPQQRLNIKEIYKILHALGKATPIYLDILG
T2 sequence (P45983 whole entry): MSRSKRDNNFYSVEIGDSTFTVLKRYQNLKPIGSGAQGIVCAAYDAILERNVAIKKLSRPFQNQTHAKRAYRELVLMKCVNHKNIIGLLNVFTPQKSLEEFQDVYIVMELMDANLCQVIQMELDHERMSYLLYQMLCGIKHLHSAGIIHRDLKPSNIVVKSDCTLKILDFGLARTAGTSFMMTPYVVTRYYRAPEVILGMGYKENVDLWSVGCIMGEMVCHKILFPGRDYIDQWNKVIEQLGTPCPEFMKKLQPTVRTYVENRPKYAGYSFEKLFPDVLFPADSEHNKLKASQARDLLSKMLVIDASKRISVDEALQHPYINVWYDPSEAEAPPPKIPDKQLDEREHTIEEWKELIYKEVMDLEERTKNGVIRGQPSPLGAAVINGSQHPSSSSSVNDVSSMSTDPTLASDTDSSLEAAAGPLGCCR

Compound	remaining binding at 1 µM [1] [%]	remaining binding at 1 µM [2] [%]	remaining binding at 1 µM [3] [%]	remaining binding at 1 µM [4] [%]	% control activity remaining [5] [%]	remaining binding at 1 µM [6] [%]	remaining binding at 1 µM [7] [%]	remaining binding at 1 µM [8] [%]	remaining binding at 1 µM [9] [%]	remaining binding at 1 µM [10] [%]	remaining binding at 1 µM [11] [%]	remaining binding at 1 µM [12] [%]	remaining binding at 1 µM [13] [%]
Clc1cc(NCC2CC2)c2ncc(-c3ccc4[nH]ncc4c3)n2n1 [compound 2, 6-Chloro-N-(cyclopropylmethyl)-3-(1H-indazol-5-yl)imidazo[1,2-b]pyridazin-8-amine]	87	91	98	100	5.6	100	78	71	99	93	82	95	96
O=C(CN1CCOCC1)N[C@H]1CC[C@H](Nc2cc(Cl)nn3c(-c4ccc5[nH]ncc5c4)cnc23)CC1 [compound 26]	100	83	98	70	0.25	99	46	90	89	84	97	96	88
CN1CCC(CNc2cc(Cl)nn3c(-c4cc5nc(Nc6ccccc6)[nH]c5cc4F)cnc23)CC1 [compound 31, 6-Chloro-3-(6-fluoro-2-(phenylamino)-1H-benzo[d]imidazol-5-yl)-N-((1-methylpiperidin-4-yl)methyl)imidazo[1,2-b]pyridazin-8-amine]	100	67	96	82	91	100	79	76	98	77	70	98	100
